Reference: PubChem BioAssay (NCI)
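Assay format: 96-well plates, 48-hour exposure. GI50: concentration for 50% inhibition of growth. TGI: concentration producing complete growth inhibition.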

What was measured:
Experiment in all cases: NCI tumour cell line growth inhibition, 48 h
HCT-116 colon = tested on: HCT-116 colon
OVCAR-5 ovarian = tested on: OVCAR-5 ovarian
DMS 273 small cell lung = tested on: DMS 273 small cell lung
DMS 114 small cell lung = tested on: DMS 114 small cell lung
MALME-3M melanoma = tested on: MALME-3M melanoma
HL-60(TB) leukemia = tested on: HL-60(TB) leukemia
UACC-62 melanoma = tested on: UACC-62 melanoma
HOP-18 NSCLC = tested on: HOP-18 NSCLC
M14 melanoma = tested on: M14 melanoma
CCRF-CEM leukemia = tested on: CCRF-CEM leukemia
K-562 leukemia = tested on: K-562 leukemia
SNB-75 CNS = tested on: SNB-75 CNS
SN12C renal = tested on: SN12C renal
RXF-631 renal = tested on: RXF-631 renal
ACHN renal = tested on: ACHN renal
OVCAR-8 ovarian = tested on: OVCAR-8 ovarian
NCI-H23 lung = tested on: NCI-H23 lung
SNB-19 CNS = tested on: SNB-19 CNS
UACC-257 melanoma = tested on: UACC-257 melanoma
SR leukemia = tested on: SR leukemia
KM12 colon = tested on: KM12 colon
LXFL 529 NSCLC = tested on: LXFL 529 NSCLC
SF-539 CNS = tested on: SF-539 CNS
NCI-H460 lung = tested on: NCI-H460 lung
CAKI-1 renal = tested on: CAKI-1 renal
KM20L2 colon = tested on: KM20L2 colon
HT29 colon = tested on: HT29 colon
HCT-15 colon = tested on: HCT-15 colon
HCC-2998 colon = tested on: HCC-2998 colon
RPMI-8226 leukemia = tested on: RPMI-8226 leukemia
MOLT-4 leukemia = tested on: MOLT-4 leukemia
NCI-H226 lung = tested on: NCI-H226 lung
U251 CNS = tested on: U251 CNS
SF-295 CNS = tested on: SF-295 CNS
SW-620 colon = tested on: SW-620 colon
TK-10 renal = tested on: TK-10 renal
NCI-H522 lung = tested on: NCI-H522 lung
SNB-78 CNS = tested on: SNB-78 CNS
A498 renal = tested on: A498 renal
LOX IMVI melanoma = tested on: LOX IMVI melanoma
OVCAR-4 ovarian = tested on: OVCAR-4 ovarian
DLD-1 colon = tested on: DLD-1 colon
M19-MEL melanoma = tested on: M19-MEL melanoma
SK-MEL-28 melanoma = tested on: SK-MEL-28 melanoma
RXF 393 renal = tested on: RXF 393 renal
UO-31 renal = tested on: UO-31 renal
XF 498 CNS = tested on: XF 498 CNS
SK-MEL-2 melanoma = tested on: SK-MEL-2 melanoma
SK-MEL-5 melanoma = tested on: SK-MEL-5 melanoma
EKVX NSCLC = tested on: EKVX NSCLC
A549 NSCLC = tested on: A549 NSCLC
OVCAR-3 ovarian = tested on: OVCAR-3 ovarian
786-0 renal = tested on: 786-0 renal
SK-OV-3 ovarian = tested on: SK-OV-3 ovarian
SF-268 CNS = tested on: SF-268 CNS
HOP-62 NSCLC = tested on: HOP-62 NSCLC
COLO 205 colon = tested on: COLO 205 colon
IGROV1 ovarian = tested on: IGROV1 ovarian
HOP-92 NSCLC = tested on: HOP-92 NSCLC

SMILES: CN=C1CN=C(OP(=O)(N2CCOCC2)N2CCOCC2)c2cc(Cl)ccc2N1
- TGI (HCT-116 colon): > 100 µM
- TGI (OVCAR-5 ovarian): > 100 µM
- TGI (DMS 273 small cell lung): > 100 µM
- TGI (DMS 114 small cell lung): > 100 µM
- TGI (MALME-3M melanoma): > 100 µM
- TGI (HL-60(TB) leukemia): > 100 µM
- TGI (UACC-62 melanoma): > 100 µM
- TGI (HOP-18 NSCLC): > 100 µM
- TGI (M14 melanoma): > 100 µM
- TGI (CCRF-CEM leukemia): > 100 µM
- TGI (K-562 leukemia): > 100 µM
- TGI (SNB-75 CNS): > 100 µM
- TGI (SN12C renal): > 100 µM
- TGI (RXF-631 renal): > 100 µM
- TGI (ACHN renal): > 100 µM
- TGI (OVCAR-8 ovarian): > 100 µM
- TGI (NCI-H23 lung): > 100 µM
- TGI (SNB-19 CNS): > 100 µM
- TGI (UACC-257 melanoma): > 100 µM
- TGI (SR leukemia): > 100 µM
- TGI (KM12 colon): > 100 µM
- TGI (LXFL 529 NSCLC): > 100 µM
- TGI (SF-539 CNS): > 100 µM
- TGI (NCI-H460 lung): > 100 µM
- TGI (CAKI-1 renal): > 100 µM
- TGI (KM20L2 colon): > 100 µM
- TGI (HT29 colon): > 100 µM
- TGI (HCT-15 colon): > 100 µM
- TGI (HCC-2998 colon): > 100 µM
- TGI (RPMI-8226 leukemia): > 100 µM
- TGI (MOLT-4 leukemia): > 100 µM
- TGI (NCI-H226 lung): > 100 µM
- TGI (U251 CNS): > 100 µM
- TGI (SF-295 CNS): > 100 µM
- TGI (SW-620 colon): > 100 µM
- TGI (TK-10 renal): > 100 µM
- TGI (NCI-H522 lung): > 100 µM
- TGI (SNB-78 CNS): > 100 µM
- TGI (A498 renal): > 100 µM
- TGI (LOX IMVI melanoma): > 100 µM
- TGI (OVCAR-4 ovarian): > 100 µM
- TGI (DLD-1 colon): > 100 µM
- TGI (M19-MEL melanoma): > 100 µM
- TGI (SK-MEL-28 melanoma): > 100 µM
- TGI (RXF 393 renal): > 100 µM
- TGI (UO-31 renal): > 100 µM
- TGI (XF 498 CNS): > 100 µM
- TGI (SK-MEL-2 melanoma): > 100 µM
- TGI (SK-MEL-5 melanoma): > 100 µM
- TGI (EKVX NSCLC): > 100 µM
- TGI (A549 NSCLC): > 100 µM
- TGI (OVCAR-3 ovarian): > 100 µM
- TGI (786-0 renal): > 100 µM

SMILES: O=C(C=Nc1ccccc1S)c1ccco1
- TGI (HCT-116 colon): 10.4 µM
- TGI (DMS 273 small cell lung): 31.7 µM
- TGI (DMS 114 small cell lung): 31 µM
- TGI (MALME-3M melanoma): 35.1 µM
- TGI (HL-60(TB) leukemia): 22.3 µM
- TGI (UACC-62 melanoma): 29.5 µM
- TGI (HOP-18 NSCLC): 37.1 µM
- GI50 (M14 melanoma): 15 µM
- TGI (M14 melanoma): 28.7 µM
- GI50 (SK-OV-3 ovarian): 3.2 µM
- TGI (SK-OV-3 ovarian): 10.1 µM
- TGI (CCRF-CEM leukemia): 10.2 µM
- TGI (K-562 leukemia): 45.8 µM
- GI50 (SNB-75 CNS): 17.7 µM
- TGI (SNB-75 CNS): 31.9 µM
- TGI (SN12C renal): 21.5 µM
- GI50 (RXF-631 renal): 7.22 µM
- TGI (RXF-631 renal): 25.7 µM
- GI50 (ACHN renal): > 100 µM
- TGI (ACHN renal): > 100 µM
- TGI (OVCAR-8 ovarian): 27.3 µM
- TGI (SF-268 CNS): 40.7 µM
- TGI (NCI-H23 lung): 15.6 µM
- TGI (SNB-19 CNS): 16.3 µM
- TGI (UACC-257 melanoma): 32.1 µM
- TGI (KM12 colon): 31.3 µM
- GI50 (LXFL 529 NSCLC): 4.57 µM
- TGI (LXFL 529 NSCLC): 15.9 µM
- TGI (SF-539 CNS): 27.3 µM
- GI50 (NCI-H460 lung): > 100 µM
- TGI (NCI-H460 lung): > 100 µM
- TGI (CAKI-1 renal): 33.7 µM
- TGI (KM20L2 colon): 34.7 µM
- TGI (HT29 colon): 37.7 µM
- TGI (HCT-15 colon): 27.4 µM
- GI50 (HCC-2998 colon): 20.6 µM
- TGI (HCC-2998 colon): 36.6 µM
- TGI (RPMI-8226 leukemia): 46.1 µM
- TGI (MOLT-4 leukemia): 27.5 µM
- TGI (U251 CNS): 18.7 µM
- TGI (HOP-62 NSCLC): 15.2 µM
- TGI (SF-295 CNS): 18.8 µM
- TGI (SW-620 colon): 32.8 µM
- TGI (TK-10 renal): 33.4 µM
- TGI (COLO 205 colon): 32.1 µM
- TGI (NCI-H522 lung): 28.8 µM
- TGI (IGROV1 ovarian): 22.2 µM
- TGI (SNB-78 CNS): 32.7 µM
- GI50 (A498 renal): > 100 µM
- TGI (A498 renal): > 100 µM
- TGI (OVCAR-4 ovarian): 26.4 µM
- TGI (DLD-1 colon): 28.1 µM
- TGI (M19-MEL melanoma): 27 µM
- TGI (SK-MEL-28 melanoma): 30.1 µM
- TGI (RXF 393 renal): 29 µM
- TGI (UO-31 renal): 6.77 µM
- TGI (SK-MEL-2 melanoma): 33.1 µM
- TGI (SK-MEL-5 melanoma): 31.7 µM
- TGI (EKVX NSCLC): 30.2 µM
- TGI (A549 NSCLC): 22.4 µM
- TGI (OVCAR-3 ovarian): 31.2 µM
- GI50 (786-0 renal): 16.6 µM
- TGI (786-0 renal): 31.8 µM

SMILES: O=c1[nH]nc(CNc2ccc(Cl)cc2Cl)c2ccccc12
- TGI (HCT-116 colon): 66.3 µM
- TGI (OVCAR-5 ovarian): > 100 µM
- TGI (DMS 273 small cell lung): 72.9 µM
- TGI (DMS 114 small cell lung): 37.1 µM
- TGI (MALME-3M melanoma): 49.7 µM
- TGI (HL-60(TB) leukemia): > 100 µM
- TGI (UACC-62 melanoma): > 100 µM
- TGI (HOP-18 NSCLC): 54.4 µM
- TGI (M14 melanoma): > 100 µM
- TGI (SK-OV-3 ovarian): 38.1 µM
- TGI (CCRF-CEM leukemia): > 100 µM
- TGI (K-562 leukemia): > 100 µM
- TGI (SNB-75 CNS): 60.8 µM
- TGI (SN12C renal): 97 µM
- TGI (RXF-631 renal): > 100 µM
- TGI (ACHN renal): 46.2 µM
- TGI (SF-268 CNS): 44.7 µM
- TGI (HOP-92 NSCLC): 80.1 µM
- TGI (SNB-19 CNS): 60.7 µM
- TGI (UACC-257 melanoma): 92.7 µM
- TGI (SR leukemia): > 100 µM
- TGI (KM12 colon): > 100 µM
- TGI (LXFL 529 NSCLC): 40.1 µM
- TGI (SF-539 CNS): 41 µM
- TGI (NCI-H460 lung): 84.5 µM
- TGI (CAKI-1 renal): 51.7 µM
- TGI (KM20L2 colon): 75.2 µM
- TGI (HT29 colon): > 100 µM
- TGI (HCT-15 colon): 89.1 µM
- TGI (HCC-2998 colon): 44.5 µM
- TGI (RPMI-8226 leukemia): > 100 µM
- TGI (MOLT-4 leukemia): > 100 µM
- TGI (NCI-H226 lung): 81.2 µM
- TGI (U251 CNS): 37.9 µM
- TGI (HOP-62 NSCLC): 43 µM
- TGI (SF-295 CNS): 44.7 µM
- TGI (SW-620 colon): > 100 µM
- TGI (TK-10 renal): 45.7 µM
- TGI (COLO 205 colon): > 100 µM
- TGI (NCI-H522 lung): 41.7 µM
- TGI (IGROV1 ovarian): 58.7 µM
- TGI (SNB-78 CNS): > 100 µM
- TGI (A498 renal): 33.7 µM
- TGI (LOX IMVI melanoma): > 100 µM
- TGI (OVCAR-4 ovarian): 39.8 µM
- TGI (DLD-1 colon): 90.6 µM
- TGI (M19-MEL melanoma): > 100 µM
- TGI (SK-MEL-28 melanoma): 52.4 µM
- TGI (RXF 393 renal): 34.9 µM
- TGI (UO-31 renal): 33.7 µM
- TGI (SK-MEL-2 melanoma): > 100 µM
- TGI (SK-MEL-5 melanoma): 50.6 µM
- TGI (EKVX NSCLC): 85.7 µM
- TGI (A549 NSCLC): 43.2 µM
- TGI (OVCAR-3 ovarian): 40.3 µM
- TGI (786-0 renal): 41.3 µM
